The record followed here is patent US11059821B2, “1H-pyrrolo[2,3-c]pyridin-7(6H)-ones and pyrazolo[3,4-c]pyridin-7(6H)-ones as inhibitors of BET proteins” (Incyte Corporation, priority 2014, dated 2021).

A value given as a limit tells only on which side of the number the result lay.

The test system of this test is KMS.12.BM cell line (human myeloma). The experiment in a line: KMS.12.BM cell viability assay. It counts as cell-based. The conditions noted are these: 72 h, 3 days, ATP quantitation (Cell Titer-GLO), concentration for 50% cell death. How it is done:
KMS.12.BM cell line (human myeloma) was purchased from JCRB (Osaka, Japan) and maintained in RPMI with 10% FBS culture medium. To measure the cytotoxic activity of the compounds through ATP quantitation, the KMS. 12.BM cells are plated in the RPMI culture medium at 5000 cells/well/per 100 μL into a 96-well polystyrene clear black tissue culture plate (Greiner-bio-one through VWR, NJ), in the presence or absence of a concentration range of test compounds. After 3 days, […] Cell Titer-GLO Luminescent (Promega, Madison, Wis.) cell culture agent is added to each well for 10 minutes at room temperature to stabilize the luminescent signal. This determines the number of viable cells in culture based on quantitation of the ATP present, which signals the presence of metabolically active cells. Luminescence is measured with the Top Count 384 (Packard Bioscience through Perkin Elmer, Boston, Mass.). Compound inhibition is determined relative to cells cultured with no drug and the IC50 is reported as the compound concentration required for 50% cell death.
For orientation: In ATP-based viability assays light output follows the ATP content of the culture.
`CC(=O)c1cc2c(c(-c3cn(C)c(=O)c4[nH]ccc34)c1)OC(C)(C)C(=O)N2` [Example 80, 6-acetyl-2,2-dimethyl-8-(6-methyl-7-oxo-6,7-dihydro-1H-pyrrolo[2,3-c]pyridin-4-yl)-2H-1,4-benzoxazin-3(4H)-one]: the IC50 (as a rule, the concentration at which inhibition is half-maximal) was not above 1 µM.

Turning to `Cn1cc(-c2cc(S(C)(=O)=O)cc3c2OC(c2ccccc2)C(=O)N3)c2cc[nH]c2c1=O` (stereo not shown) [Example 46, 8-(6-methyl-7-oxo-6,7-dihydro-1H-pyrrolo[2,3-c]pyridin-4-yl)-6-(methylsulfonyl)-2-phenyl-2H-1,4-benzoxazin-3(4H)-one], the IC50 was not above 1 µM.

Take `CC(=O)c1cc2c(c(-c3cn(C)c(=O)c4[nH]ccc34)c1)OC(C(C)C)C(=O)N2` (stereo not shown) [Example 49, 6-acetyl-2-isopropyl-8-(6-methyl-7-oxo-6,7-dihydro-1H-pyrrolo[2,3-c]pyridin-4-yl)-2H-1,4-benzoxazin-3(4H)-one]: the IC50 is not above 1 µM.

For the compound `CC(=O)c1cc(-c2cn(C)c(=O)c3[nH]ccc23)c2c(c1)N(C)C(=O)C(C)(C)O2` [Example 82, 6-acetyl-2,2,4-trimethyl-8-(6-methyl-7-oxo-6,7-dihydro-1H-pyrrolo[2,3-c]pyridin-4-yl)-2H-1,4-benzoxazin-3(4H)-one], the IC50 was not above 1 µM.
